System: rabbit brain tissue
Test: Continuous NADH fluorescence monitoring (TRLIFS) in ex-vivo brain tissue exposed to Rotenone
Format: cell-based
Settings: FIG. 6
Text: In order to excite the tissue, a Q-switched Nd:YaG laser emitting at a wavelength of 350 nm was used, running at 1 KHz with a pulse width (FWHM) of 400 ps (Teem Photonics PNVM02510). […] The excitation light was delivered to the tissue using a custom made trifurcated optical probe. The probe consisted of a central 600 micron fiber for delivering the excitation light surrounded by twelve 200 micron fibers to collect the fluorescence (FIG. 3). Every other fiber from the twelve collection fibers were bundled together forming two channels. One collection channel/bundle connected to a spectrometer (Ocean Optics, Maya), which measured the fluorescence spectrum every 100 ms and the other channel/bundle connected to a beam splitter (demultiplexer). The beam splitter at 452 nm of wavelength separated the significant free and bound fluorescence, which was recorded both by MCP-PMT and spectrometer.
Rabbit brain was removed after sacrificing the animal in the OR and transported in cold oxygen rich Kreb-ringer solution to the laboratory. […] A baseline NADH (bound and free) was recorded till the fluorescence from the tissue equilibrated and plateaued. After approximately 30 mins, a measured dose of 50 nM rotenone, which blocks the binding of NADH to […] in the mitochondrion, was added. […]
The effect of various concentrations of Rotenone on the rabbit brain tissue was recorded (FIG. 6). […]

C=C(C)[C@H]1Cc2c(ccc3c2O[C@@H]2COc4cc(OC)c(OC)cc4[C@@H]2C3=O)O1 [Rotenone]
NADH level (fluorescence, free and bound) (ex-vivo rabbit brain cortex in Kreb-Ringer solution, 95% O2/5% CO2, 50 nM Rotenone added, excitation 350 nm): increase in NADH level
NADH fluorescence (ex-vivo rabbit brain cortex, increasing concentrations of Rotenone added every 10 mins): NADH fluorescence increased

— patent US12152991B2, “Time-resolved laser-induced fluorescence spectroscopy systems and uses thereof” (Cedars-Sinai Medical Center, priority 2013, dated 2024)
